Laboratory results reported in US20060135569A1, “Use of benzisoselenazolone compounds against ischemic myocardial damage” (priority 2002, published 2006).
Marks after values point to notes of the source that are not given here.

What was measured:
Na^+/Ca^2+ exchanger = biological target: T1, Na^+/Ca^2+ exchanger (Cavia porcellus, UniProt P48766); experiment: Na^+/Ca^2+ exchange current (INa—Ca), whole-cell patch clamp, intracellular Na^+ overload cell model; type: cell-based, guinea pig; set-up: Inhibitory rate of outward INa—Ca (%) / Inhibitory rate of inward INa—Ca (%): concentration or dose not given beside the values; details: for inhibitory ratio on INa—Ca at −80 mV: inward current; for inhibitory ratio on INa—Ca at +50 mV: outward current; for effective concentration (significant inhibitory effect on reverse mode Na^+/Ca^2+ exchange): intracellular Na^+ overload; for selectivity of inhibition of outward versus inward INa—Ca: biphasic ion conditioning
T1 construct: endogenous in cells; host or cells: freshly isolated guinea pig ventricular myocytes
Source text: 1. Establishment of Assaying Method for Biphasical Current Detection in Na^+/Ca^2+ Exchange System
Since the reverse mode of Na^+/Ca^2+ exchange process is one of the main mechanisms involving in ischemia/reperfusion insult, it is of great importance to establish cell model represented reverse mode Na^+/Ca^2+ exchange process for the development of drugs against ischemic injury. Therefore, we successfully established cell model of reverse mode Na^+/Ca^2+ exchange system by intracellular Na^+ dialysis technique, and recorded Na^+/Ca^2+ exchange currents by patch clamp experiment.
Internal solution contained certain concentration of NaCl was filled to the microcatheter, and ion exchange process between the cellular and internal solutions was conducted after whole cell currents were recorded by patch clamp. Na^+ contained in the internal solution was dialyzed into the cell; result in the high intracellular Na^+ concentration. After that, the cell was champed at a holding potential of −40 mV, then depolarized to +60 mV and followed by a conversely declining ramp stimuli at a speed of 80 mV·s^−1 and 2 s conditioning pulse, then repolarized to −100 mV with a frequency of 0.05 Hz. Under the stimulation protocol, current from outward to the inward direction was recorded by perfusing modified biphasical Tyrode solution (in which the outward and inward currents can be recorded simultaneously) with the addition of 1 mmol·L^−1 of BaCl2 and 2 mmol·L^−1 of CsCl to block K^+ channels, 1 μmol·L^−1 of verapamil to block L-type Ca^2+ channels, and 20 μmol·L^−1 of ouabain to block Na^+/K^+ ATPase, and 20 mmol·L^−1 of TEA to block potassium channels. The recorded inward currents were presented in a linear manner owing to the blockade of other time-dependent currents. With the increase of intracellular Na^+ level and prolongation of time, the reverse mode of Na^+/Ca^2+ exchange process was activated. […] Under such experimental conditioning, the maximum reverse mode current was recorded 3 min after cell crushed. No significant “run-down” was observed within the record period of 8 minutes. The inward and outward current were inhibited by 5 mmol·L^−1 of Ni^2+ treatment, and the experiment result in two current-voltage curves in the absence or presence of Ni^2+. The Ni^2+ sensitive current, also called electrophysiological Na^+/Ca^2+ exchange current (INa·Ca), was the minus result of two current-voltage curves. The reverse mode potential of INa—Ca was about −20 mV
Male guinea pigs weighting 250˜280 g provided by the Animal Center of the Chinese Academy of Medical Sciences were hammered and sacrificed. The chest was opened and the heart was removed quickly. Fatty tissue and pericardium were removed in a Ca^2+-free solution at 4° C., and heart was sequentially mounted on a Langendorff apparatus. First, the heart was perfused conversely via the aorta for 6 min with Ca^2+-free solution in order to wash out residual blood, then the heart expands and the color of it turns to pink. Then the heart was perfused with Ca^2+-free solution containing 0.1 mg/ml of pronase E, 0.5 mg/ml defatted bovine serum albumin (BSA) and 150 μM Ca^2+ for 2˜3 min, until the heart expanded and became soft. The atrium was removed, and the digested heart was minced with scissors, stirred in a beaker at 37° C. for 5˜10 min. The supernatant was diluted with Ca^2+-free solution containing 0.5 mg/ml BSA and 1.8 mM Ca^2+. The supernatant was placed at room temperature (20˜24° C.) for 1 hr and then subjected to the experiment. During the whole perfusion period, pressure was kept at 70 cmH2O and the temperature of solution was kept at 37° C. with continuously gassed with 95% O2 and 5% CO2.
Rod-shaped cells with clear striations and intact membrane were used. […]

[1] = system: arrhythmia caused by ischemia/reperfusion insults in anaesthetic rats; experiment: Ischemia/reperfusion arrhythmia in anaesthetic rats, intravenous injection; type: in vivo, rat; details: rats
Source text: (1) Protective Effects of the Tested Compounds on Myocardial Insults in Rats after Intravenously Injection
Arrhythmic potency induced by myocardial insults was used to assess the potential protective effect of the compounds.

[2] = system: isolated rat hearts subjected to ischemia-reperfusion (I/R); experiment: Isolated heart subjected to ischemia/reperfusion injury (arrhythmia); details: 10^−6 M; isolated heart ischemia/reperfusion
Method: Based on the pre-electrophysiological cell model screening, we have compared the inhibition ratios of the outward current by reverse-transportation of Na^+/Ca^2+ exchange, and further in vitro tests on isolated rat hearts subjected to ischemia-reperfusion (I/R) were conducted. Prolongation of ventricular arrhythmic, incidence rate of ventricular extrasystole, ventricular tachycardia/ventricular fibrillation (VT/VF) were recorded to evaluate the protective actions of drugs on myocardial injury.
On the basis of above screening results obtained from electrophysiological studies, and the result from comparative study on the research of the inhibitory effect of compounds on reverse mode Na^+/Ca^2+ exchange process, 7 effective compounds were subjected to in vitro study. Among which, IMM-313, IMM-004 and IMM-132 have structures containing chlorine; IMM-127, IMM-128 and IMM-129 have structures containing fluorine; and IMM-065 has a structure containing OH. The experiment performed in the isolated heart subjected to ischemia/reprefusion insult. Prolongation of ventricular arrhythmic, incidence of ventricular extrasystole, ventricular tachycardia/ventricular fibrillation (VT/VF) were recorded in order to evaluate the protective actions of drugs on myocardial injury.

[3] = screening of 22 candidate compounds
[4] = Example 1 table, myocardial cell
[5] = 0.3 mg/Kg intravenous (femoral vein)

N=C(N)NC(=O)c1nc(Cl)c(N)nc1N [Amiloride, reference compound]
inhibitory ratio on INa—Ca at −80 mV (Na^+/Ca^2+ exchanger; 10 μM): 6%
inhibitory ratio on INa—Ca at +50 mV (Na^+/Ca^2+ exchanger; 10 μM): 15%
inhibitory ratio on INa—Ca at −80 mV (Na^+/Ca^2+ exchanger; 30 μM): 15%
inhibitory ratio on INa—Ca at +50 mV (Na^+/Ca^2+ exchanger; 30 μM): 23%
inhibitory ratio on INa—Ca at −80 mV (Na^+/Ca^2+ exchanger; 100 μM): 23%
inhibitory ratio on INa—Ca at +50 mV (Na^+/Ca^2+ exchanger; 100 μM): 41%
effective concentration (significant inhibitory effect on reverse mode Na^+/Ca^2+ exchange) (Na^+/Ca^2+ exchanger): above 10^−5 mol·L^−1

O=c1c2ccccc2[se]n1-c1ccncc1 [IMM-001, 2-(4-pyridyl)-1,2-benzisoselenazol-3(2H)-one]
inhibitory ratio on INa—Ca at −80 mV (Na^+/Ca^2+ exchanger; 0.1 μM): 15%
inhibitory ratio on INa—Ca at +50 mV (Na^+/Ca^2+ exchanger; 0.1 μM): 28%
inhibitory ratio on INa—Ca at −80 mV (Na^+/Ca^2+ exchanger; 1 μM): 24%
inhibitory ratio on INa—Ca at +50 mV (Na^+/Ca^2+ exchanger; 1 μM): 48%
inhibitory ratio on INa—Ca at −80 mV (Na^+/Ca^2+ exchanger; 10 μM): 42%
inhibitory ratio on INa—Ca at +50 mV (Na^+/Ca^2+ exchanger; 10 μM): 66%
selectivity of inhibition of outward versus inward INa—Ca (Na^+/Ca^2+ exchanger): high selectivity
effective concentration (significant inhibitory effect on reverse mode Na^+/Ca^2+ exchange) (Na^+/Ca^2+ exchanger): 10^−7 to 10^−5 mol·L^−1
incidence and duration of VT, VF, VE / ventricular arrhythmic ([1]; 3 mg/Kg intravenous (femoral vein)): all reduced

O=c1c2ccccc2[se]n1/C=C/C1N=CCN1 (stereo not drawn) [IMM-002, 2-[(3,4-dihydroimidazol-2-yl)-2-ethenyl]-1,2-benz-isoselenazol-3(2H)-one]
Inhibitory rate of inward INa—Ca (%) (Na^+/Ca^2+ exchanger; [3]): 34%
Inhibitory rate of outward INa—Ca (%) (Na^+/Ca^2+ exchanger; [3]): 32* %

O=c1c2ccccc2[se]n1-c1cccc2cccnc12 [IMM-003, 2-(8-quinolinyl)-1,2-benz-isoselenazol-3(2H)-one]
Inhibitory rate of outward INa—Ca (%) (Na^+/Ca^2+ exchanger; [3]): 22%

O=c1c2ccccc2[se]n1-c1cccnc1 [IMM-030, 2-(3-pyridyl)-1,2-benzisoselenazol-3(2H)-one]
Inhibitory rate of inward INa—Ca (%) (Na^+/Ca^2+ exchanger; [3]): 17%
Inhibitory rate of outward INa—Ca (%) (Na^+/Ca^2+ exchanger; [3]): 12%

O=c1c2ccccc2[se]n1Cc1ccccn1 [IMM-058, 2-(2-pyridylmethyl)-1,2-benz-isoselenazol-3(2H)-one]
Inhibitory rate of outward INa—Ca (%) (Na^+/Ca^2+ exchanger; [3]): 3%

O=c1c2ccccc2[se]n1Cc1ccco1 [IMM-059, 2-(2-furanylmethyl)-1,2-benz-isoselenazol-3(2H)-one]
Inhibitory rate of inward INa—Ca (%) (Na^+/Ca^2+ exchanger; [3]): 15%
Inhibitory rate of outward INa—Ca (%) (Na^+/Ca^2+ exchanger; [3]): 8%

O=c1c2cc(Cl)ccc2[se]n1-c1cccnc1 [IMM-125, 5-chloro-2-(3-pyridyl)-1,2-benz-isoselenazol-3(2H)-one]
Inhibitory rate of inward INa—Ca (%) (Na^+/Ca^2+ exchanger; [3]): 14%
Inhibitory rate of outward INa—Ca (%) (Na^+/Ca^2+ exchanger; [3]): 35%

O=c1c2cc(F)ccc2[se]n1-c1ccncc1 [IMM-129, 5-fluoro-2-(4-pyridyl)-1,2-benz-isoselenazol-3(2H)-one]
Inhibitory rate of inward INa—Ca (%) (Na^+/Ca^2+ exchanger; [4]): 57%
Inhibitory rate of outward INa—Ca (%) (Na^+/Ca^2+ exchanger; [4]): 59%
Inhibitory rate of inward INa—Ca (%) (Na^+/Ca^2+ exchanger; [3]): 57* %
Inhibitory rate of outward INa—Ca (%) (Na^+/Ca^2+ exchanger; [3]): 59* %
AAT: arrhythmic occurrence time, Time [2]: 23.67 ± 3.87 min
VF (ventricular fibrillation) Incidence rate (%) [2]: 63%
VPS (ventricular premature beats) Incidence rate (%) [2]: 37.5%
VT (ventricular tachycardia) Incidence rate (%) [2]: 75%

O=c1c2cc(F)ccc2[se]n1-c1ccccc1 [IMM-130, 5-fluoro-2-phenyl-1,2-benz-isoselenazol-3(2H)-one]
Inhibitory rate of inward INa—Ca (%) (Na^+/Ca^2+ exchanger; [3]): 43%
Inhibitory rate of outward INa—Ca (%) (Na^+/Ca^2+ exchanger; [3]): 30%

O=c1c2cc(Cl)ccc2[se]n1-c1ccccc1 [IMM-131, 5-chloro-2-phenyl-1,2-benz-isoselenazol-3(2H)-one]
Inhibitory rate of inward INa—Ca (%) (Na^+/Ca^2+ exchanger; [3]): 15%
Inhibitory rate of outward INa—Ca (%) (Na^+/Ca^2+ exchanger; [3]): 22%

O=c1c2cc(Cl)ccc2[se]n1-c1ccncc1 [IMM-132, 5-chloro-2-(4-pyridyl)-1,2-benz-isoselenazol-3(2H)-one]
Inhibitory rate of inward INa—Ca (%) (Na^+/Ca^2+ exchanger; [4]): 14%
Inhibitory rate of outward INa—Ca (%) (Na^+/Ca^2+ exchanger; [4]): 44%
Inhibitory rate of inward INa—Ca (%) (Na^+/Ca^2+ exchanger; [3]): 14%
Inhibitory rate of outward INa—Ca (%) (Na^+/Ca^2+ exchanger; [3]): 44* %
AAT: arrhythmic occurrence time, Time [2]: 29.13 ± 0.69 min
VF (ventricular fibrillation) Incidence rate (%) [2]: 85.7%
VPS (ventricular premature beats) Incidence rate (%) [2]: 28.6%
VT (ventricular tachycardia) Incidence rate (%) [2]: 85.7%

O=c1c2ccc(Cl)cc2[se]n1-c1cccnc1 [IMM-141, 6-chloro-2-(3-pyridyl)-1,2-benz-isoselenazol-3(2H)-one]
Inhibitory rate of inward INa—Ca (%) (Na^+/Ca^2+ exchanger; [3]): 2%

O=c1c2ccc(Cl)cc2[se]n1-c1ccccn1 [IMM-142, 6-chloro-2-(2-pyridyl)-1,2-benz-isoselenazol-3(2H)-one]
Inhibitory rate of inward INa—Ca (%) (Na^+/Ca^2+ exchanger; [3]): 57%
Inhibitory rate of outward INa—Ca (%) (Na^+/Ca^2+ exchanger; [3]): 46%

O=c1c2cc(O)ccc2[se]n1-c1ccccn1 [IMM-163, 5-hydroxy-2-(2pyridyl)-1,2-benz-isoselenazol-3(2H)-one]
Inhibitory rate of inward INa—Ca (%) (Na^+/Ca^2+ exchanger; [3]): 19%
Inhibitory rate of outward INa—Ca (%) (Na^+/Ca^2+ exchanger; [3]): 14%

O=c1c2cc(O)ccc2[se]n1-c1ccccc1 [IMM-164, 5-hydroxy-2-phenyl-1,2-benz-isoselenazol-3(2H)-one]
Inhibitory rate of inward INa—Ca (%) (Na^+/Ca^2+ exchanger; [3]): 22%
Inhibitory rate of outward INa—Ca (%) (Na^+/Ca^2+ exchanger; [3]): 8%

CCCCC1OC(=O)c2cccc(-n3[se]c4ccccc4c3=O)c21 (stereo not drawn) [IMM-623, 2-[4-(7-n-butyl-benzo(1,2-c-di-hydrofuran-2-one))]-1,2-benz-isoselenazol-3(2H)-one]
Inhibitory rate of inward INa—Ca (%) (Na^+/Ca^2+ exchanger; [3]): 15%
Inhibitory rate of outward INa—Ca (%) (Na^+/Ca^2+ exchanger; [3]): 11%

N=C(N)SCCc1ccc(OCc2ccc([N+](=O)[O-])cc2)cc1 [KB-R7943, 2-[2-[4-(4-nitrobenzyloxy)phenyl]]isothiourea, reference compound]
inhibitory ratio on INa—Ca at −80 mV (Na^+/Ca^2+ exchanger; 1 μM): 22%
inhibitory ratio on INa—Ca at +50 mV (Na^+/Ca^2+ exchanger; 1 μM): 29%
inhibitory ratio on INa—Ca at −80 mV (Na^+/Ca^2+ exchanger; 10 μM): 57%
inhibitory ratio on INa—Ca at +50 mV (Na^+/Ca^2+ exchanger; 10 μM): 61%
selectivity of inhibition of outward versus inward INa—Ca (Na^+/Ca^2+ exchanger): without selectivity
selectivity of inhibition of outward versus inward INa—Ca (Na^+/Ca^2+ exchanger; listed as KB-R794): poor selectivity

COc1ccc(CCN(C)CCCC(C#N)(c2ccc(OC)c(OC)c2)C(C)C)cc1OC (stereo not drawn) [Verapamil, reference compound]
incidence of VT, VF, VE and duration of arrhythmic [1, 5]: all reduced
latency of ventricular arrhythmic [1, 5]: significantly prolonged
